Results on 1 molecule are retold here after publication PMC8426237, “A first-in-human phase I study of TAS0728, an oral covalent binding inhibitor of HER2, in patients with advanced solid tumors with HER2 or HER3 aberrations” (Investigational New Drugs, 2021).

Details of data set [1]: method as in PMID 30787176. The following applies: efficacious doses in mouse models; cited from earlier work.
Data set [2] concerns xenograft models of tumors with acquired resistance to trastuzumab/pertuzumab or to T-DM1. On the set-up: method as in PMID 32248641. Conditions: cited from earlier work.
For data set [3] the following is noted: human, in vivo.
Protocol: A DLT was defined as a study treatment-related adverse event (TRAE), according to the Common Terminology Criteria for Adverse Events (CTCAE, Version 5.0), with qualifying criteria for certain DLTs (e.g., Grade ≥ 3 diarrhea, was included as a DLT only if lasting >48 h and unresponsive to intensive antidiarrheal medication).
Patients were closely monitored for these potential toxicities during the current study. Safety assessments included recording of AEs and serious AEs (SAEs) from the time of signing the study informed consent form to 30 days after the last dose of study medication. Safety parameters including laboratory evaluations (hematology, coagulation, chemistry, and urinalysis), vital sign measurements and body weight, electrocardiogram (ECG) recordings, ECOG performance status, echocardiogram or multi-gated acquisition (MUGA), and physical examination were assessed at screening, during the study and at 30 days following the last dose. The use of concomitant medications was permitted and details for such medications were recorded.

For `C=CC(=O)N1CCC[C@@H](n2nc(C(=O)Nc3ccc(CC(=O)N(C)C)c(C)c3C)c3c(N)ncnc32)C1` [TAS0728], the Diarrhea during treatment entry in data set [1] is “did not induce diarrhea”. Moreover, the Anti-tumor effect entry in data set [2] is given as “significant anti-tumor effects”. In data set [3], the “Patients with urinary tract infection” value is given as 28.6%.
